Measured values: patent US8895738B2, “Mesoionic pyrido [1, 2-A] pyrimidine pesticides” (E I du Pont de Nemours and Company, priority 2010, dated 2014)
Where a name gives a salt, the structure may show the parent alone.

Columns and labels:
Assay type in all cases: in vivo
[1] = tested on: Rice plants (indica cultivar ‘IR-64’); assay: Test O: harvest yield of rice crop outdoors, Bargarh; conditions: 12.5, 25 and 50 g a.i./ha (method: 6.25, 12.5, 25 or 50), with indoxacarb and chlorantraniliprole, controls 1370 kg/ha
Experimental: (§1) To evaluate the effect of application of a compound of the invention on the vigor of rice crops grown under outdoor conditions, Tests 1 through 0 were conducted. “a.i.” refers to the amount of active ingredient applied.
Rice plants (indica cultivar ‘IR-64’) were transplanted into flooded 5 m×5 m test plots of clay loam soil the Bargarh district, Orissa, India, at the end of the winter season, and grown using local agronomic practices. After 79 days, aqueous mixtures containing 30 g a.i./ha of indoxacarb in form of STEWARD® Insecticide, 20 g a.i./ha of chlorantraniliprole, and 6.25, 12.5, 25 or 50 g a.i./ha of Compound 3 were applied to the foliage of the rice plants at in a spray volume of 500 L/ha using a backpack sprayer. Plots of control rice plants were sprayed with an aqueous mixture containing 30 g a.i./ha of indoxacarb in form of STEWARD® Insecticide and 20 g a.i./ha of chlorantraniliprole (i.e. no Compound 3). Each treatment and control was replicated three times, and the plots were arranged in a randomized complete block design. At the time of application of Compound 3, the pest level of rice brown planthopper (Nilaparvata lugens) was high, i.e. much above the level considered economically significant.
Harvest yields from the crops treated with 12.5, 25 and 50 g a.i./ha of Compound 3 were 2470, 3430, 3470 and 4600 kg/ha, respectively, compared to 1370 kg/ha from the untreated controls.

[2] = tested on: rice brown planthopper (Nilaparvata lugens); assay: Test H: control of rice brown planthopper on rice plant; conditions: 120 h, assessed after 5 days, read-out: control efficacy: mortality
Experimental: For evaluating control of rice brown planthopper (Nilaparvata lugens) through contact and/or systemic means, the test unit consisted of a plastic pot containing a 13-cm-tall rice plant covered with steel wire mesh (50 mesh) supported by a wire frame. A small amount of sand was added to form a good seal between the bottom of the wire mesh, the soil surface and the top edge of the plastic pot.
Test compounds were formulated and sprayed at 10, 2 and/or 0.4 ppm, and the tests were replicated three times in a manner similar to the one described for Test A. After spraying, the test units were allowed to dry for 2 h before they were post-infested with 10 brown planthoppers (3rd instar nymphs, 7-9 days post-hatch). After 5 days, each test unit was visually assessed for insect mortality.

[3] = tested on: green peach aphid (Myzus persicae); assay: Test B: control of green peach aphid on radish plant, contact and/or systemic; conditions: 144 h, assessed after 6 days
From the text: For evaluating control of green peach aphid (Myzus persicae) through contact and/or systemic means, the test unit consisted of a small open container with a 12-15-day-old radish plant inside. This was pre-infested by placing on a leaf of the test plant 30-40 aphids on a piece of leaf excised from a culture plant (cut-leaf method). The aphids moved onto the test plant as the leaf piece desiccated. After pre-infestation, the soil of the test unit was covered with a layer of sand.
Test compounds were formulated and sprayed at 250, 50 and/or 10 ppm as described for Test A. The applications were replicated three times. After spraying of the formulated test compound, each test unit was allowed to dry for 1 h and then a black, screened cap was placed on top. The test units were held for 6 days in a growth chamber at 19-21° C. and 50-70% relative humidity. Each test unit was then visually assessed for insect mortality.

[4] = tested on: potato leafhopper (Empoasca fabae); assay: Test E: control of potato leafhopper on Soleil bean plant, contact and/or systemic; conditions: 144 h, assessed after 6 days, read-out: control efficacy: mortality
Experimental: For evaluating control of potato leafhopper (Empoasca fabae) through contact and/or systemic means, the test unit consisted of a small open container with a 5-6-day-old Soleil bean plant (primary leaves emerged) inside. White sand was added to the top of the soil and one of the primary leaves was excised prior to application.
Test compounds were formulated and sprayed at 250, 50, 10 and/or 2 ppm, and the tests were replicated three times as described for Test A. After spraying, the test units were allowed to dry for 1 h before they were post-infested with 5 potato leafhoppers (18-21-day-old adults). A black, screened cap was placed on the top of each test unit, and the test units were held for 6 days in a growth chamber at 24° C. and 70% relative humidity. Each test unit was then visually assessed for insect mortality.

[5] = tested on: Rice plants (indica cultivar); assay: Test M: vigor of direct seeded rice crop outdoors, An Giang, Vietnam; conditions: all application rates (6.25, 12.5, 25 or 50 g a.i./ha) with 30 g a.i./ha indoxacarb and 20 g a.i./ha chlorantraniliprole; 18 days after application; Nilaparvata lugens level very low
Experimental: as §1
Rice plants (indica cultivar) were direct seeded into flooded 6 m×5 m test plots of clay loam soil in An Giang Province of Vietnam shortly before the monsoon, and grown using local agronomic practices. After 42 days, at the beginning of the wet season, aqueous mixtures containing 30 g a.i./ha of indoxacarb in form of STEWARD® Insecticide, 20 g a.i./ha of chlorantraniliprole, and 6.25, 12.5, 25 or 50 g a.i./ha of Compound 3 were applied to the foliage of the rice plants at in a spray volume of 400 L/ha using a motorized sprayer. Plots of control rice plants were sprayed with an aqueous mixture containing 30 g a.i./ha of indoxacarb in form of STEWARD® Insecticide and 20 g a.i./ha of chlorantraniliprole (i.e. no Compound 3). Each treatment and control was replicated three times, and the plots were arranged in a randomized complete block design. At the time of application of Compound 3, the pest level of rice brown planthopper (Nilaparvata lugens) was very low.

[6] = tested on: Rice plants (indica cultivar ‘MTU1010’); assay: Test I: vigor of rice crop outdoors, foliar application, West Godavri; conditions: 20 days after application, Nilaparvata lugens level high
Experimental: as §1
Rice plants (indica cultivar ‘MTU1010’) were transplanted into flooded 5 m×3 m test plots of clay loam soil in the delta region of the West Godavri district, Andhra Pradesh, India, during the rainy season, and grown using local agronomic practices. After 47 days, aqueous mixtures of Compound 3 were applied to the foliage of the rice plants at 12.5, 25 or 50 g a.i./ha in a spray volume of 387 L/ha using a backpack sprayer. Plots of unsprayed rice plants were used as controls. Each treatment and control was replicated three times, and the plots were arranged in a randomized complete block design. At the time of application of Compound 3, the pest level of rice brown planthopper (Nilaparvata lugens) was high, i.e. much above the level considered economically significant.
The crop vigor of the rice plants in each plot was visually rated based on general external appearance (e.g., plant height) 20 days after application on a 0 to 200% scale, wherein the plants in untreated control plots were considered to represent 100%, and the results for the three replicates for each treatment were averaged. More than 100% means the plants in a treated plot were more vigorous than those in the untreated control plot, while less than 100% means the plants in the treated pot were less vigorous.

Molecule `O=c1c(-c2cccc(C(F)(F)F)c2)c([O-])[n+](Cc2cncnc2)c2ccccn12` [Compound 3, 2-hydroxy-4-oxo-1-(5-pyrimidinylmethyl)-3-[3-(trifluoromethyl)phenyl]-4H-pyrido[1,2-a]pyrimidinium inner salt] has a harvest yield ([1]; 1st of four values) of 2470 kg/ha, a harvest yield ([1]; 2nd of four values) of 3430 kg/ha and a harvest yield ([1]; 3rd of four values) of 3470 kg/ha. The harvest yield ([1]; 4th of four values) was 4600 kg/ha, the mortality at 2 ppm ([2]; sprayed at 2 ppm) was at least 80% and the mortality at 10 ppm ([2]; sprayed at 10 ppm) was at least 80%. For the same molecule, the mortality at 50 ppm ([3]; sprayed at 50 ppm) was at least 80%, the mortality at 250 ppm ([3]; sprayed at 250 ppm) was at least 80% and the mortality at 10 ppm ([4]; sprayed at 10 ppm) was at least 80%. For the same molecule, the mortality at 50 ppm ([4]; sprayed at 50 ppm) was at least 80%, the mortality at 250 ppm ([4]; sprayed at 250 ppm) was at least 80% and the “crop vigor (visual rating, 0 to 200% scale, control = 100%)” value [5] was 100%. The “crop vigor (visual rating, 0 to 200% scale, untreated = 100%)” value ([6]; 12.5 g a.i./ha foliar) was 140%, the “crop vigor (visual rating, 0 to 200% scale, untreated = 100%)” value ([6]; 25 g a.i./ha foliar) was 143% and the “crop vigor (visual rating, 0 to 200% scale, untreated = 100%)” value ([6]; 50 g a.i./ha foliar) was 143%.
